One may read the pIC50 as the negative decadic logarithm of the IC50, by convention in mol/L.

The conditions of series [1]: background statement; cited from earlier work.
The test system of another series is RXF 486L. Description: In vitro 3D clonogenic assay. Type of series: cell-based. As to conditions: Homo sapiens, 3D model, colony formation, 8 to 13 days continuous exposure. The procedure: (§1) Cell lines were routinely passaged one or twice weekly. All cells were grown at 37° C. in a humidified atmosphere with 5% CO2 in RPMI 1640 medium (Biochrom) supplemented with 10% (v/v) fetal calf serum and 0.1 mg/mL gentamicin. The percentage of viable cells was determined in a Neubauer-hemocytometer using trypan blue exclusion.
(§2) Tumor xenografts (patient-derived, as well as cell line-derived xenografts) were passaged as subcutaneous xenografts in NMRI nu/nu mice. At a tumor volume of 400-1,000 mm^3 tumor-bearing mice were sacrificed and tumors were collected under sterile conditions without delay according to the relevant Oncotest SOPs and the relevant animal welfare guidelines published by the FELASA and the GV-SOLAS. Tumors were mechanically disaggregated and subsequently incubated with an enzyme cocktail consisting of collagenase type IV (41 U/mL), DNase I (125 U/mL), hyaluronidase type III (100 U/mL), and dispase II (1.0 U/mL) in RPMI 1640 medium (Life Technologies) at 37° C. for 60-120 minutes. Cells were passed through sieves of 100 μm and 40 μm mesh size (Cell Strainer, BD Falcon™), and washed with RPMI 1640 medium. The percentage of viable cells was determined in a Neubauer-hemocytometer using trypan blue exclusion. Aliquots of the cells were frozen down, and stored in liquid nitrogen. On each day of an experiment, a frozen aliquot of tumor cells was thawed and used for preparation of assay plates.
(§3) The clonogenic assay was carried out in a 96 well plate format using ultra low attachment plates. For each test, cells were prepared as described above and assay plates were prepared as follows: each test well contained a layer of semi-solid medium with tumor cells (50 and a second layer of medium supernatant with or without test compound (100 The cell layer consisted of 2.5·10^3 to 1·10^4 tumor cells per well, which were seeded in 50 μL/well cell culture medium (IMDM, supplemented with 20% (v/v) fetal calf serum, 0.01% (w/v) gentamicin, and 0.4% (w/v) agar). After 24 hours the test compounds were added after serial dilution in cell culture medium, and left on the cells for the duration of the experiment (continuous exposure, 100 μl drug overlay). Every plate included six untreated control wells and drug-treated groups in duplicate at 9 concentrations. Cultures were incubated at 37° C. and 7.5% CO2 in a humidified atmosphere for 8 to 13 days and monitored closely for colony growth using an inverted microscope. Within this period, ex vivo tumor growth led to the formation of colonies with a diameter of >50 μm. At the time of maximum colony formation, counts were performed with an automatic image analysis system (CellInsight NXT, Thermo Scientific). 48 hours prior to evaluation, vital colonies were stained with a sterile aqueous solution of 2-(4-iodophenyl)-3-(4-nitrophenyl)-5-phenyltetrazolium chloride (1 mg/ml, 100 μl/well).

For a further series, the system named is Caki-1. Description: In vitro 3D clonogenic assay. Type of series: cell-based. As to conditions: Homo sapiens, 3D model, colony formation, 8 to 13 days continuous exposure. Here is the method:
as §1, §2, §3

In another series the test system is RXF 1220L. The series is described as follows: In vitro 3D clonogenic assay. Type of series: cell-based. As to conditions: Homo sapiens, 3D model, colony formation, 8 to 13 days continuous exposure. The procedure:
as §1, §2, §3

In another series the test system is RXF 1183L. Description: In vitro 3D clonogenic assay. The series is classed as cell-based. As to conditions: Homo sapiens, 3D model, colony formation, 8 to 13 days continuous exposure. Here is the method:
as §1, §2, §3

For a further series, the system named is ACHN. Description: In vitro 3D clonogenic assay. The series is classed as cell-based. As to conditions: Homo sapiens, 3D model, colony formation, 8 to 13 days continuous exposure. Here is the method:
as §1, §2, §3

The test system of a further series is RXF 393L. The series is described as follows: In vitro 3D clonogenic assay. Type of series: cell-based. The conditions noted are these: Homo sapiens, 3D model, colony formation, 8 to 13 days continuous exposure. The procedure:
as §1, §2, §3

Another series concerns 786-O. Description: In vitro 3D clonogenic assay. Type of series: cell-based. The conditions noted are these: Homo sapiens, 786-0, 3D model, colony formation, 8 to 13 days continuous exposure. Here is the method: as §1, §2, §3
A further series has as its system SN12C. The series is described as follows: In vitro 3D clonogenic assay. The conditions noted are these: Homo sapiens, 3D model, colony formation, 8 to 13 days continuous exposure. The series is classed as cell-based. The procedure:
as §1, §2, §3

The next series has as its system A-498. The series is described as follows: In vitro 3D clonogenic assay. Type of series: cell-based. As to conditions: Homo sapiens, A498, 3D model, colony formation, 8 to 13 days continuous exposure. Here is the method: as §1, §2, §3
Another series relates to RXF 1781L. Description: In vitro 3D clonogenic assay. Type of series: cell-based. As to conditions: Homo sapiens, 3D model, colony formation, 8 to 13 days continuous exposure. Here is the method: as §1, §2, §3
The subject of series [2] is human tumor cell models for RCC. The series is described as follows: In vitro 3D clonogenic assay, all tumor models. The series is classed as cell-based. The conditions noted are these: 3D model, geometric mean over 10 tumor models. Here is the method:
as §1
as §2, with “Cells were passed through sieves of 100 μm and 40 μm mesh size (Cell Strainer, BD Falcon™), and washed with RPMI 1640 medium.” left out, “Aliquots of the cells were frozen down, and stored in liquid nitrogen. On each day of an experiment, a frozen aliquot of tumor cells was thawed and used for preparation of assay plates.” left out
The clonogenic assay was carried out in a 96 well plate format using ultra low attachment plates. […] Cultures were incubated at 37° C. and 7.5% CO2 in a humidified atmosphere for 8 to 13 days and monitored closely for colony growth using an inverted microscope. […]

pIC50: −log10 of the molar value. Like-named read-outs stand apart in the source and are kept apart here.

With `CC(C)(Oc1ccc(CCNC(=O)c2ccc(Cl)cc2)cc1)C(=O)O` [Bezafibrate], the “Absorption following oral administration” value in [1] was “well absorbed”. Besides, the pIC50 was 3.00 with RXF 486L (read-out: Absolute IC50); 3.02 in the series with RXF 486L (read-out: Relative IC50); 2.89 with Caki-1 (read-out: Absolute IC50); 2.89 in the series with Caki-1 (read-out: Relative IC50); 2.93 with RXF 1220L (read-out: Absolute IC50); 2.91 in the series on RXF 1220L (read-out: Relative IC50). Besides, the pIC50 with RXF 1183L (read-out: Absolute IC50) was 3.22; in the series on RXF 1183L (read-out: Relative IC50), 3.15; with ACHN (read-out: Absolute IC50), 2.99; in the series with ACHN (read-out: Relative IC50) it was 2.98; with RXF 393L (read-out: Absolute IC50), 2.90; in the series on RXF 393L (read-out: Relative IC50), 2.89. The pIC50 is 2.87 in the series on 786-O (read-out: Absolute IC50); 2.83 in the series on 786-O (read-out: Relative IC50); 3.33 with SN12C (read-out: Absolute IC50); 3.33 in the series on SN12C (read-out: Relative IC50); 3.12 in the series with A-498 (read-out: Absolute IC50); 3.11 in the series on A-498 (read-out: Relative IC50). Besides, the pIC50 is 2.99 in the series on RXF 1781L (read-out: Absolute IC50), 2.96 in the series on RXF 1781L (read-out: Relative IC50), 3.02 in series [2] (read-out: Geometric mean absolute IC50) and 3.01 in series [2] (read-out: Geometric mean relative IC50).
